In patent US6107104A, “Modulators of anchoring protein function” (ICOS Corporation, priority 1996, dated 2000):
One block for each substance: values may come before it. Ends that are not written are not given here.

Legend:
[1] = biological target: AKAP 79/RII binding; test: Scintillation proximity assay of TRX-AKAP 79/3H-RII binding; details: read-out: IC50 of inhibition of AKAP 79/RII binding
From the text: Initially, a thioredoxin TRX-AKAP 79 fusion protein expression plasmid was constructed. See, generally, LaVallie, et al., BIO/TECHNOLOGY 11:187-193 (1993). Briefly, a XhaI/HindIII thioredoxin fragment was subcloned into pUC 19 containing a lac Z gene and a tacZ promoter. The resulting plasmid was designated TRX F/S pUC19. In order to insert an AKAP 79 encoding sequence into TRX F/S pUC19, an NcoI site was created with an oligonucleotide (SEQ ID NO:32) having terminal SpeI and HindIII sequences. Following SpeI/HindIII digestion, the oligonucleotide was inserted into the vector and an NcoI/XhoI fragment encoding AKAP 79 was ligated in frame with the thioredoxin gene. The fusion protein was expressed in E. coli and immobilized on 96-well ScintiStrip plates (Wallac, Turbu, Finland) which contained a scintillator embedded in the solid support. […] When ^3 H-RII bound to AKAP 79, the label was brought sufficiently close to the support-embedded scintillator, resulting in emission detected in a MicroBeta scintillation counter.
The scintillation proximity assay (SPA) screening protocol described in Example 8 was employed to determine the ability of various chemicals to inhibit binding between AKAP 79 and ^3 H-RII. […] Percent binding was determined by the measuring the amount of radioactivity in each well compared to the amount of radioactivity in wells wherein only AKAP 79 and ^3 H-RII were introduced.

[2] = biological target: T1, CaN A (Rattus norvegicus, UniProt P63329); test: ELISA and modified ELISA, AKAP 79 binding to immobilized CaN A
T1 construct: the deletion mutant form of CaN A is used in the assays described above in place of full length CaN A; made in house; host or cells: Sf9 cells (baculovirus); construct from Vollum Institute
Description: Two different capture methods were used. In one method, CaN A was first captured on plates by passive coating, AKAP 79 or biotinylated AKAP 79 was added, and complex formation detected by either ELISA or by streptavidin-HRP. In another method, rabbit anti-mouse antibodies were first captured on plates, mouse anti-TRX antibodies added and captured, and TRX-AKAP 79 added and captured. This method was similar to the capture method used for AKAP 79/^3 H-RII SPA. Biotinylated CaN A was then added, and the complex detected by streptavidin-HRP.
(§1) Specifically, in the first method, recombinant CaN A, expressed as described above, was added to wells of Immulon plates (Dynatech) in a 35 mM sodium bicarbonate/15 mM sodium carbonate buffer, pH 9.6. Proteins bound to the surface of the wells by plastic/protein interaction. As a positive control, RII, and a negative control, bovine serum albumin (BSA) were separately and similarly captured in individual wells and assayed in this method. Nonspecific sites in the wells were blocked with a buffer containing 2.5% milk in 50 mM sodium citrate and 145 mM sodium chloride. Full length TRX-AKAP 79 was added in a final volume of 100 μl and after up to 2 hours incubation, free and non-specific proteins were removed with several washes with PBS/0.5% Tween 20. A mouse anti-AKAP 79 monoclonal antibody, generated against recombinant AKAP 79, was added to each well, followed by addition of a horse radish peroxidase (HRP)-conjugated goat anti-mouse antibody. HRP substrate tetramethylbenzidine (TMB) was added and absorbance at 450 nm determined using a Dynatech 96 well plate reader.
In the modified ELISA, standard ELISA techniques were employed except that HRP-conjugated streptavidin was used to detect bound biotinylated AKAP 79 instead of an anti-AKAP 79 monoclonal antibody. Briefly, after incubation of immobilized CaN A with biotinylated AKAP 79, HRP-conjugated streptavidin was added for 30 minutes. […] Bound streptavidin was detected with HRP substrate TMB and absorbance measured at 450 nm using a Dynatech 96 well plate reader. […]

[3] = system: RII; test: ELISA and modified ELISA, AKAP 79 binding to immobilized RII
Description: as §1
In the modified ELISA, standard ELISA techniques were employed except that HRP-conjugated streptavidin was used to detect bound biotinylated AKAP 79 instead of an anti-AKAP 79 monoclonal antibody. Briefly, after incubation of immobilized CaN A with biotinylated AKAP 79, HRP-conjugated streptavidin was added for 30 minutes. Unbound protein was removed with multiple washes of PBS/0.05% Tween 20. Bound streptavidin was detected with HRP substrate TMB and absorbance measured at 450 nm using a Dynatech 96 well plate reader. As in the ELISA described above, RII was immobilized and assayed as a positive control, and BSA as a negative control.

[4] = biological target: T2, CaN (Rattus norvegicus, UniProt P63329); test: CaN phosphatase activity toward 32P RII peptide substrate; format: biochemical; details: Ca2+/calmodulin dependent CaN 30 nM, 32P RII peptide substrate
T2 construct: made in house; host or cells: Sf9 cells (baculovirus)
Description: (§2) To determine whether AKAP 79 peptide binding inhibits CaN activity, CaN phosphatase activity was assayed in the presence of recombinant AKAP 79. Briefly, recombinant AKAP 79 was expressed in E. coli as described in Carr et al., J. Biol. Chem., 267:16816-16823 (1992), incorporated herein by reference. CaN and the constitutively active truncation mutant CaN420 (a truncated, Ca^2+ /calmodulin independent constitutively active form of CaN (Perrino et al., J. Biol. Chem., in press)) were expressed in Sf9 cells and purified on calmodulin-Sepharose as described in Perrino et al., J. Biol Chem., 267:15965-15969 (1992), incorporated herein by reference. Phosphatase activity toward ^32 P RII peptide substrate was measured as described in Perrino et al., supra. CaN (30 nM), calmodulin (100 nM) and ^32 P RII peptide (22 μM) were incubated with AKAP 79 protein and AKAP 79 peptide (SEQ ID NO:1-amino acids 81-102) over the range of concentrations indicated in FIG. 1B. Calmodulin was omitted from CaN420 assays. ^32 P released from the substrate was measured in triplicate samples in three separate experiments by scintillation counting. The inhibition constant (Ki) of recombinant AKAP 79 for CaN was determined by linear regression analysis of data. Ki values for AKAP 79 peptide were estimated by determining the IC50 using a fixed substrate concentration at Km (42 μM).

[5] = biological target: T3, CaN420 (Rattus norvegicus, UniProt P63329); test: CaN420 phosphatase activity toward 32P RII peptide substrate; format: biochemical; details: calmodulin omitted
T3 construct: a truncated, Ca^2+ /calmodulin independent constitutively active form of CaN; made in house; host or cells: Sf9 cells (baculovirus)
Description: as §2

[6] = system: IL-2 transcription in Jurkat T cell line (NFATZ); test: NFATZ Jurkat IL-2 promoter lacZ β-gal FACS assay; format: cell-based
From the text: IL- 2 transcription was studied following activation with PMA and ionomycin. These two agents are known respectively to potentiate protein kinase C and calcium second messenger responses (including activation of CaN). Protein kinase C activates the Ras-Raf-1-Mek-MAP Kinase pathway that participates in induction of the nuclear component of NFAT. The increased calcium concentration activates calcineurin which, in turn, activates the cytoplasmic component of NFAT and allows translocation to the nucleus.
Each of the peptides was myristilated as described in Eichholtz et al., J. Biol. Chem., 268:1982-1986 (1993).
Incubation with forskolin/IBMX elevates intracellular cAMP concentrations (FIG. 4), thereby activating PKA. Finally, phorbol 12-myristate 13-acetate (PMA) (10 ng/ml) and ionomycin (2 μM) were added and incubations continued for 4 hr. Controls were incubated with PMA/ionomycin alone or forskolin/IBMX and PMA/ionomycin under conditions as described above. During the last 20 min of the PMA/ionomycin incubation, chloroquine (300 μM) was added to inhibit endogenous lysosomal β-gal activity. The cells were spun out and resuspended in 50 μl of culture medium to which 50 μl of fluorescein di-β-D-galactopyranoside (FDG) was added (0.1 mM final concentration; Molecular Probes). […] The lacZ β-gal activity was measured by flow cytometry configured for fluorescein analysis.

[7] = system: PKC/AKAP 79 interaction; test: PKC overlay assay; format: binding, rabbit
Description: In order to determine if the 75 kDa protein identified may be the bovine homolog of AKAP 79, the PKC overlay assay was used to probe AKAP 79 and related fragments. Briefly, proteins were separated by SDS-polyacrylamide electrophoresis (SDS-PAGE) and blotted to nitrocellulose following standard protocols. Samples were blocked in Blotto [1 mg/ml bovine serum albumin (BSA), 5% dry milk in Tris-buffered saline (TBS)] and incubated for one hour at room temperature in assay buffer [TBS containing 1 mg/ml BSA, 1.2 mM calcium, 1 mM EGTA, 20 μg/ml phosphatidylserine (PS), 2 μg/ml leupeptin, 2 μg/ml pepstatin and 3 μg/ml of partially purified rabbit brain PKC]. Bound PKC was detected with monoclonal antibody M7, which recognizes both PKCα and β, following standard chemiluminescent detection methods.

[8] = system: PKC; test: PKC activity assay with EGF receptor peptide substrate; format: biochemical
Description: In order to asses the ability of these peptides to modulate PKC activity, the following assay was performed in the presence and absence of AKAP 79 peptide fragments. PKC [50 nM dissolved in 50 mM tris-HCl (pH 7.4), 5 mM MgCl2 1.2 mM CaCl2, 1 mM DTT, 1 mM EGTA and 100 μg/ml PS] was incubated with EGF receptor peptide substrate (5 μM) at 30° C. for five minutes. Phosphorylation reaction was initiated by addition of 100 μM ^32 P-ATP (500 cpm/pmol) and the reaction allowed to proceed for ten minutes at 30° C. Aliquots of reaction mixture were removed and spotted into P81 filter paper and the reaction terminated by washing the filter paper with excess 75 mM phosphoric acid (three washes for three minutes each). After a final wash in ethanol, the p81 filters were dried and radioactivity was measured by liquid scintillation counting.

IC50 [1]: 1 nM
Substance: unlabeled RII: unlabeled RII regulatory subunit of PKA, reference inhibitor

Substance: AKAP 79/Met159: biotinylated AKAP 79 truncation, first 159 amino terminal amino acids deleted
binding to immobilized CaN A [2]: no specific binding
recognition of immobilized RII [3]: specifically recognized

Substance: AKAP 79/M108: biotinylated AKAP 79 truncation, first 108 amino terminal residues deleted
recognition of immobilized RII [3]: specifically recognized

Substance: AKAP 79/Met247: biotinylated AKAP 79 truncation, first 247 amino terminal amino acids deleted
binding to immobilized CaN A [2]: no specific binding
recognition of immobilized RII [3]: specifically recognized

binding to immobilized CaN A [2]: bound
inhibition of full-length CaN phosphatase activity [4]: non-competitive manner
inhibition of CaN420 phosphatase activity [5]: non-competitive manner
Substance: AKAP 79: recombinant anchoring protein AKAP 79 expressed in E. coli

inhibition of full-length CaN phosphatase activity [4]: not an inhibitor
IC50 [1]: 50 nM
Substance: Ht31 peptide: Ht31 peptide (SEQ ID NO:4), blocks anchoring protein binding to RII (DLIEEAAVSRIVDAVIEEVKAAGA) [reference compound]

Substance: Asp-Leu-Ile-Glu-Glu-Ala-Ala-Ser-Arg-Ile-Val-Asp-Ala-Val-Ile-Glu-Gln-Val-Lys-Ala-Ala-Gly-Ala-Tyr (DLIEEAASRIVDAVIEQVKAAGAY; also: myristoylated, place not given here) [myristilated Ht31 peptide, amino acids 493-515 of the full length Ht31 protein, myristilated]
reversal of forskolin/IBMX blockade of PMA/ionomycin induced β-gal activity ([6]; 100 μM myristilated peptide): completely reversed

effect of incubation with CaM on inhibition of PKC ([8]; CaM 15 μM, excess Ca2+): prevented inhibition
type of inhibition of PKC activity ([8]; EGF receptor peptide as substrate): mixed inhibition
IC50 ([8]; read-out: IC50 of inhibition of PKC activity): 2000 nM
Substance: peptide containing residues 31-52: synthetic peptide of residues 31-52 of AKAP 79 (KASMLCFKRRKKAAKALKPKAG; UniProt P24588 31-52, looked up, fragment)
block of PKC/AKAP 79 interaction [7]: blocked

Substance: myristilated AKAP 75 peptide: myristilated peptide of amino acids 81-108 of AKAP 75 (SEQ ID NO:8) (SIKRLVTRRKRSESSKQQKPFKAKLQSE; also: myristoylated, place not given here)
reduction of PMA/ionomycin induced β-gal activity ([6]; 10 μM in the medium): 40-50%
